Measured values from ChEMBL document CHEMBL3352089 (J Med Chem, 2014).

Legend:
Format in all cases: cell-based
Details in all cases: read-out: Activity
[1] = Cytotoxicity against human HepG2 cells assessed as cell viability at 1 uM after 4 hrs by Cell-Titer Glo assay
[2] = Cytotoxicity against human HepG2 cells assessed as cell viability at 10 uM after 4 hrs by Cell-Titer Glo assay
[3] = Cytotoxicity against human HepG2 cells assessed as cell viability at 100 uM after 4 hrs by Cell-Titer Glo assay
[4] = Cytotoxicity against human HepG2 cells assessed as cell viability at 1 uM after 24 hrs by Cell-Titer Glo assay
[5] = Cytotoxicity against human HepG2 cells assessed as cell viability at 10 uM after 24 hrs by Cell-Titer Glo assay
[6] = Cytotoxicity against human HepG2 cells assessed as cell viability at 100 uM after 24 hrs by Cell-Titer Glo assay

COc1cc(-c2cc(-c3ccc(N4CCNCC4)cc3)cnc2Cl)cc(OC)c1OC
> 75%: viability at 4 h, 1 µM [1] | viability at 4 h, 10 µM [2] | viability at 4 h, 100 µM [3] | viability at 24 h, 1 µM [4] | viability at 24 h, 10 µM [5]

CNC(=O)c1cc(Oc2ccc(NC(=O)Nc3ccc(Cl)c(C(F)(F)F)c3)cc2)ccn1 [SORAFENIB]
> 75%: viability at 4 h, 1 µM [1] | viability at 4 h, 10 µM [2] | viability at 4 h, 100 µM [3] | viability at 24 h, 1 µM [4] | viability at 24 h, 10 µM [5]

C[C@@H](Oc1cc(-c2cnn(C3CCNCC3)c2)cnc1N)c1c(Cl)ccc(F)c1Cl [CRIZOTINIB]
> 75%: viability at 4 h, 1 µM [1] | viability at 4 h, 10 µM [2] | viability at 24 h, 1 µM [4] | viability at 24 h, 10 µM [5]

c1ccc2c(-c3cnn4cc(-c5ccc(N6CCNCC6)cc5)cnc34)ccnc2c1
> 75%: viability at 4 h, 1 µM [1] | viability at 4 h, 10 µM [2] | viability at 24 h, 1 µM [4]

Cc1nc(Nc2ncc(C(=O)Nc3c(C)cccc3Cl)s2)cc(N2CCN(CCO)CC2)n1 [DASATINIB]
> 75%: viability at 4 h, 1 µM [1] | viability at 4 h, 10 µM [2] | viability at 24 h, 1 µM [4]

Nc1ncc(-c2ccc(N3CCNCC3)cc2)cc1-c1cccc2ncccc12
> 75%: viability at 4 h, 1 µM [1] | viability at 4 h, 10 µM [2] | viability at 4 h, 100 µM [3] | viability at 24 h, 1 µM [4] | viability at 24 h, 10 µM [5]

COc1cc(-c2cc(-c3ccc(N4CCNCC4)cc3)cnc2OC)cc(OC)c1OC
> 75%: viability at 4 h, 1 µM [1] | viability at 4 h, 10 µM [2] | viability at 24 h, 1 µM [4] | viability at 24 h, 10 µM [5]

Cc1ccc(Nc2nccc(N(C)c3ccc4c(C)n(C)nc4c3)n2)cc1S(N)(=O)=O [PAZOPANIB]
> 75%: viability at 4 h, 1 µM [1] | viability at 4 h, 10 µM [2] | viability at 4 h, 100 µM [3] | viability at 24 h, 1 µM [4] | viability at 24 h, 10 µM [5] | viability at 24 h, 100 µM [6]

CNc1ncc(-c2ccc(N3CCNCC3)cc2)cc1-c1cc(OC)c(OC)c(OC)c1
> 75%: viability at 4 h, 1 µM [1] | viability at 4 h, 10 µM [2] | viability at 4 h, 100 µM [3] | viability at 24 h, 1 µM [4] | viability at 24 h, 10 µM [5]

COc1cccc(-c2cc(-c3ccc(N4CCNCC4)cc3)cnc2N)c1
> 75%: viability at 4 h, 1 µM [1] | viability at 4 h, 10 µM [2] | viability at 4 h, 100 µM [3] | viability at 24 h, 1 µM [4] | viability at 24 h, 10 µM [5]

COc1cc(-c2cnn3cc(-c4ccc(N5CCNCC5)cc4)cnc23)cc(OC)c1OC
> 75%: viability at 4 h, 1 µM [1] | viability at 4 h, 10 µM [2] | viability at 24 h, 1 µM [4]

COc1ccc(-c2cc(-c3ccc(N4CCNCC4)cc3)cnc2N)cc1
> 75%: viability at 4 h, 1 µM [1] | viability at 4 h, 10 µM [2] | viability at 24 h, 1 µM [4] | viability at 24 h, 10 µM [5]

COc1cc(-c2cnc(N)c(-c3cc(OC)c(OC)c(OC)c3)c2)ccc1O
> 75%: viability at 4 h, 1 µM [1] | viability at 4 h, 10 µM [2] | viability at 4 h, 100 µM [3] | viability at 24 h, 1 µM [4] | viability at 24 h, 10 µM [5] | viability at 24 h, 100 µM [6]

Cc1cn(-c2cc(NC(=O)c3ccc(C)c(Nc4nccc(-c5cccnc5)n4)c3)cc(C(F)(F)F)c2)cn1 [NILOTINIB]
> 75%: viability at 4 h, 1 µM [1] | viability at 4 h, 10 µM [2] | viability at 4 h, 100 µM [3] | viability at 24 h, 1 µM [4] | viability at 24 h, 10 µM [5] | viability at 24 h, 100 µM [6]

COc1cc(-c2cc(-c3ccc(N4CCNCC4)cc3)cnc2N)ccc1Cl
> 75%: viability at 4 h, 1 µM [1] | viability at 4 h, 10 µM [2] | viability at 24 h, 1 µM [4] | viability at 24 h, 10 µM [5]

COc1cc(-c2cc(-c3cccc(N4CCNCC4)c3)cnc2N)cc(OC)c1OC
> 75%: viability at 4 h, 1 µM [1] | viability at 4 h, 10 µM [2] | viability at 4 h, 100 µM [3] | viability at 24 h, 1 µM [4] | viability at 24 h, 10 µM [5]

CC(C)Oc1cccc(-c2cc(-c3ccc(N4CCNCC4)cc3)cnc2N)c1
> 75%: viability at 4 h, 1 µM [1] | viability at 4 h, 10 µM [2] | viability at 24 h, 1 µM [4] | viability at 24 h, 10 µM [5]

CS(=O)(=O)CCNCc1ccc(-c2ccc3ncnc(Nc4ccc(OCc5cccc(F)c5)c(Cl)c4)c3c2)o1 [LAPATINIB]
> 75%: viability at 4 h, 1 µM [1] | viability at 4 h, 10 µM [2] | viability at 4 h, 100 µM [3] | viability at 24 h, 1 µM [4] | viability at 24 h, 10 µM [5] | viability at 24 h, 100 µM [6]

COc1cc(OC)cc(-c2cc(-c3ccc(N4CCNCC4)cc3)cnc2N)c1
> 75%: viability at 4 h, 1 µM [1] | viability at 4 h, 10 µM [2] | viability at 24 h, 1 µM [4] | viability at 24 h, 10 µM [5]

Nc1ncc(-c2cccc(N3CCNCC3)c2)cc1-c1ccnc2ccccc12
> 75%: viability at 4 h, 1 µM [1] | viability at 4 h, 10 µM [2] | viability at 24 h, 1 µM [4] | viability at 24 h, 10 µM [5]

COc1cc(-c2cc(-c3cccc(NS(C)(=O)=O)c3)cnc2N)cc(OC)c1OC
> 75%: viability at 4 h, 1 µM [1] | viability at 4 h, 10 µM [2] | viability at 4 h, 100 µM [3] | viability at 24 h, 1 µM [4] | viability at 24 h, 10 µM [5] | viability at 24 h, 100 µM [6]

CCCS(=O)(=O)Nc1ccc(F)c(C(=O)c2c[nH]c3ncc(-c4ccc(Cl)cc4)cc23)c1F [VEMURAFENIB]
> 75%: viability at 4 h, 1 µM [1] | viability at 4 h, 10 µM [2] | viability at 4 h, 100 µM [3] | viability at 24 h, 1 µM [4] | viability at 24 h, 10 µM [5]

COc1ccc(-c2cc(-c3ccc(N4CCNCC4)cc3)cnc2N)cc1OC
> 75%: viability at 4 h, 1 µM [1] | viability at 4 h, 10 µM [2] | viability at 4 h, 100 µM [3] | viability at 24 h, 1 µM [4] | viability at 24 h, 10 µM [5]

N#CC[C@H](C1CCCC1)n1cc(-c2ncnc3[nH]ccc23)cn1 [RUXOLITINIB]
> 75%: viability at 4 h, 1 µM [1] | viability at 4 h, 10 µM [2] | viability at 4 h, 100 µM [3] | viability at 24 h, 1 µM [4] | viability at 24 h, 10 µM [5]

C#Cc1cccc(Nc2ncnc3cc(OCCOC)c(OCCOC)cc23)c1 [ERLOTINIB]
> 75%: viability at 4 h, 1 µM [1] | viability at 4 h, 10 µM [2] | viability at 4 h, 100 µM [3] | viability at 24 h, 1 µM [4] | viability at 24 h, 10 µM [5] | viability at 24 h, 100 µM [6]

Nc1ncc(-c2ccc(N3CCNCC3)cc2)cc1-c1ccnc2ccccc12
> 75%: viability at 4 h, 1 µM [1] | viability at 4 h, 10 µM [2] | viability at 4 h, 100 µM [3] | viability at 24 h, 1 µM [4] | viability at 24 h, 10 µM [5]

CCN(CC)CCNC(=O)c1c(C)[nH]c(/C=C2\C(=O)Nc3ccc(F)cc32)c1C [SUNITINIB]
> 75%: viability at 4 h, 1 µM [1] | viability at 4 h, 10 µM [2] | viability at 24 h, 1 µM [4]

COc1cc2ncnc(Nc3ccc(F)c(Cl)c3)c2cc1OCCCN1CCOCC1 [GEFITINIB]
> 75%: viability at 4 h, 1 µM [1] | viability at 4 h, 10 µM [2] | viability at 4 h, 100 µM [3] | viability at 24 h, 1 µM [4] | viability at 24 h, 10 µM [5] | viability at 24 h, 100 µM [6]

COc1cc(-c2cc(-c3ccc(N4CCNCC4)cc3)cnc2N)ccc1C
> 75%: viability at 4 h, 1 µM [1] | viability at 4 h, 10 µM [2] | viability at 24 h, 1 µM [4] | viability at 24 h, 10 µM [5]

c1cc(-c2cnn3cc(-c4ccc(N5CCNCC5)cc4)cnc23)c2cccnc2c1
> 75%: viability at 4 h, 1 µM [1] | viability at 4 h, 10 µM [2] | viability at 4 h, 100 µM [3] | viability at 24 h, 1 µM [4] | viability at 24 h, 10 µM [5]

Nc1ncc(-c2ccc(N3CCNCC3)cc2)cc1-c1ccc2c(c1)OCCO2
> 75%: viability at 4 h, 1 µM [1] | viability at 4 h, 10 µM [2] | viability at 4 h, 100 µM [3] | viability at 24 h, 1 µM [4] | viability at 24 h, 10 µM [5]

COc1cc(OC)cc(-c2cncc(-c3ccc(N4CCNCC4)cc3)c2)c1
> 75%: viability at 4 h, 1 µM [1] | viability at 4 h, 10 µM [2] | viability at 24 h, 1 µM [4] | viability at 24 h, 10 µM [5]

COc1cc(-c2cc(-c3ccc(N4CCNCC4)cc3)cnc2N(C)C)cc(OC)c1OC
> 75%: viability at 4 h, 1 µM [1] | viability at 4 h, 10 µM [2] | viability at 4 h, 100 µM [3] | viability at 24 h, 1 µM [4] | viability at 24 h, 10 µM [5]
